Assay results taken from ChEMBL document CHEMBL1201862, “PubChem BioAssay data set” (2004).
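A five-concentration, 48-hour dose response in 96-well plates underlies each endpoint, interpolated linearly between surrounding concentrations. Here, GI50 denotes the concentration required for 50% inhibition of growth.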 The source made the active and inactive calls. Cut-off read from the data, not from the text of the source: active = GI50 up to about 1.1 µM and inactive = higher.

Key:
Experiment in all cases: NCI-60 cell line screen, 48 h
SK-OV-3 = tested on: SK-OV-3
ACHN = tested on: ACHN
EKVX = tested on: EKVX
HT-29 = tested on: HT-29
DMS-273 = tested on: DMS-273
A498 = tested on: A498
U-251 = tested on: U-251
UACC-62 = tested on: UACC-62
CCRF-CEM = tested on: CCRF-CEM
SR = tested on: SR
SNB-19 = tested on: SNB-19
NCI-H226 = tested on: NCI-H226
786-0 = tested on: 786-0
SK-MEL-28 = tested on: SK-MEL-28
KM12 = tested on: KM12
HOP-92 = tested on: HOP-92
UACC-257 = tested on: UACC-257
NCI-H522 = tested on: NCI-H522
DU-145 = tested on: DU-145
Hs-578T = tested on: Hs-578T

Measured: GI50

O=C1C2c3[nH]c4ccccc4c3C3CCC(c4ccccc4)CC3C2C(=O)N1c1ccccc1 (configuration not stated)
inactive: SK-OV-3 > 100 µM | ACHN > 100 µM | EKVX > 100 µM | HT-29 > 100 µM | DMS-273 > 100 µM | A498 > 10 µM | U-251 > 100 µM | UACC-62 > 100 µM | CCRF-CEM 44.3 µM | SR 92.5 µM | SNB-19 > 100 µM | NCI-H226 > 100 µM | 786-0 > 100 µM | SK-MEL-28 > 100 µM | KM12 > 100 µM

C=C1CC(C/C=C(\C)CC2CC(=C)C(=O)O2)OC1=O (configuration not stated)
inactive: SK-OV-3 > 100 µM | ACHN > 100 µM | EKVX > 100 µM | HT-29 > 100 µM | DMS-273 > 100 µM | A498 > 100 µM | U-251 > 100 µM | UACC-62 > 100 µM | CCRF-CEM > 100 µM | SR > 100 µM | HOP-92 > 100 µM | UACC-257 > 100 µM | SNB-19 > 100 µM | 786-0 > 100 µM | SK-MEL-28 > 100 µM | KM12 > 100 µM

CC(C)=NNC(=S)NC12CC3CC(CC(C3)C1)C2
inactive: SK-OV-3 > 100 µM | ACHN > 100 µM | NCI-H522 > 100 µM | EKVX > 100 µM | HT-29 > 100 µM | DMS-273 > 100 µM | A498 > 100 µM | U-251 > 100 µM | UACC-62 > 100 µM | CCRF-CEM > 100 µM | SR > 100 µM | HOP-92 > 100 µM | UACC-257 > 100 µM | SNB-19 > 100 µM | NCI-H226 > 100 µM | 786-0 > 100 µM | SK-MEL-28 > 100 µM | KM12 > 100 µM

NS(=O)(=O)c1ccc(NC(=O)CC(=O)Nc2ccc(S(N)(=O)=O)cc2)cc1
inactive: SK-OV-3 > 100 µM | ACHN > 100 µM | NCI-H522 > 100 µM | EKVX > 100 µM | HT-29 > 100 µM | DMS-273 > 100 µM | A498 > 100 µM | U-251 > 100 µM | UACC-62 > 100 µM | CCRF-CEM > 100 µM | SR > 100 µM | HOP-92 > 100 µM | UACC-257 > 100 µM | SNB-19 > 100 µM | NCI-H226 > 100 µM | 786-0 > 100 µM | SK-MEL-28 > 100 µM

O=C(CCc1nnc(S)[nH]1)Nc1ccc(Cl)c(Cl)c1
inactive: SK-OV-3 > 100 µM | ACHN 12.6 µM | NCI-H522 23.4 µM | EKVX > 100 µM | HT-29 > 100 µM | DMS-273 19.8 µM | A498 > 100 µM | U-251 99.5 µM | UACC-62 2.98 µM | CCRF-CEM 80.4 µM | SR 51.2 µM | HOP-92 53.2 µM | UACC-257 34.8 µM | SNB-19 > 100 µM | NCI-H226 > 100 µM | 786-0 > 100 µM | SK-MEL-28 71.6 µM | KM12 21.9 µM

CCOC(OC1=C(C#N)CCC1)C(C)[Se]c1ccccc1 (configuration not stated)
inactive: SK-OV-3 > 100 µM | ACHN 32.1 µM | NCI-H522 13.5 µM | EKVX 30.5 µM | HT-29 42.2 µM | DMS-273 14.5 µM | A498 > 100 µM | U-251 6.41 µM | UACC-62 18.5 µM | CCRF-CEM > 100 µM | SR 11.6 µM | HOP-92 24.4 µM | UACC-257 62.8 µM | SNB-19 48.1 µM | NCI-H226 19.7 µM | 786-0 14.4 µM | SK-MEL-28 40.6 µM | KM12 92.9 µM

CC(C)(C)C[P+](C)(C)c1ccccc1
inactive: SK-OV-3 > 100 µM | ACHN > 100 µM | EKVX > 100 µM | HT-29 > 100 µM | DMS-273 > 100 µM | U-251 > 100 µM | UACC-62 > 100 µM | CCRF-CEM > 100 µM | SR > 100 µM | HOP-92 > 100 µM | UACC-257 > 100 µM | SNB-19 > 100 µM | NCI-H226 > 100 µM | 786-0 > 100 µM | SK-MEL-28 > 100 µM | KM12 > 100 µM

COc1cc(CNc2nc3c(N)cc(C(F)(F)F)cc3nc2-c2ccccc2)cc(OC)c1OC
inactive: SK-OV-3 > 10 µM | ACHN 23.7 µM | NCI-H522 11.6 µM | EKVX 3.41 µM | HT-29 13.4 µM | DMS-273 37.8 µM | A498 61.9 µM | U-251 63.8 µM | UACC-62 35.2 µM | CCRF-CEM > 10 µM | SR > 10 µM | HOP-92 22.8 µM | UACC-257 63 µM | SNB-19 > 10 µM | NCI-H226 50.2 µM | 786-0 88.3 µM | SK-MEL-28 53.5 µM | KM12 18 µM

Cn1c2c(c3ccccc31)CCN(CCN1CCN(c3ccccc3)CC1)C2=O
inactive: SK-OV-3 > 100 µM | ACHN > 100 µM | NCI-H522 26.3 µM | EKVX > 100 µM | HT-29 > 100 µM | DMS-273 > 100 µM | U-251 > 100 µM | UACC-62 > 100 µM | CCRF-CEM > 100 µM | HOP-92 31.2 µM | 786-0 68.2 µM | SK-MEL-28 > 100 µM

CCN(CC)CC(=O)Nc1ccc2c(c1)C(=O)c1ccc(NC(=O)CN(CC)CC)cc1C2=O
inactive: SK-OV-3 22.9 µM | ACHN 25.5 µM | NCI-H522 21.1 µM | EKVX 89.3 µM | HT-29 30.5 µM | DMS-273 18.7 µM | A498 12.9 µM | U-251 21.6 µM | UACC-62 73.8 µM | CCRF-CEM 20.7 µM | SR 18.1 µM | HOP-92 85.3 µM | UACC-257 31.8 µM | SNB-19 23.8 µM | 786-0 18.9 µM | SK-MEL-28 53.2 µM | KM12 22.3 µM

C=CC(=O)NCNC(=O)C=C
inactive: SK-OV-3 > 100 µM | ACHN > 100 µM | NCI-H522 > 100 µM | EKVX > 100 µM | HT-29 > 100 µM | DMS-273 > 100 µM | A498 > 100 µM | U-251 > 100 µM | UACC-62 > 100 µM | CCRF-CEM > 100 µM | SR > 100 µM | HOP-92 > 100 µM | UACC-257 > 100 µM | SNB-19 > 100 µM | NCI-H226 > 100 µM | 786-0 > 100 µM | SK-MEL-28 > 100 µM | KM12 > 100 µM

Cc1cc(Cl)ccc1NC(=O)C(=O)Cc1ccc([N+](=O)[O-])c([N+](=O)[O-])c1CC(=O)C(=O)Nc1ccc(Cl)cc1C
inactive: SK-OV-3 > 100 µM | ACHN > 100 µM | NCI-H522 99.1 µM | EKVX > 100 µM | HT-29 > 100 µM | DMS-273 > 100 µM | A498 > 100 µM | U-251 > 100 µM | UACC-62 > 100 µM | CCRF-CEM 78.7 µM | SR 42.1 µM | HOP-92 82 µM | UACC-257 > 100 µM | SNB-19 > 100 µM | NCI-H226 > 100 µM | 786-0 > 100 µM | SK-MEL-28 > 100 µM | KM12 > 100 µM

CSc1cnc2ccccc2c1Sc1cn(C)c2ccccc2c1=O
inactive: SK-OV-3 17.6 µM | ACHN > 100 µM | EKVX 29.3 µM | HT-29 58.5 µM | DMS-273 21.6 µM | A498 36.2 µM | U-251 7.14 µM | UACC-62 21.9 µM | CCRF-CEM 19.7 µM | SR 12.6 µM | HOP-92 12 µM | UACC-257 59.4 µM | SNB-19 19.1 µM | NCI-H226 26.1 µM | 786-0 30.3 µM | SK-MEL-28 27.9 µM | KM12 25.8 µM

CN1c2ccccc2N(C(=O)c2ccccc2)C(CC(=O)O)c2cccn21 (configuration not stated)
inactive: SK-OV-3 > 100 µM | ACHN > 100 µM | NCI-H522 > 100 µM | EKVX > 100 µM | HT-29 > 100 µM | DMS-273 > 100 µM | A498 > 100 µM | U-251 > 100 µM | UACC-62 55.3 µM | CCRF-CEM > 100 µM | HOP-92 19.4 µM | UACC-257 > 100 µM | SNB-19 > 100 µM | 786-0 > 100 µM | SK-MEL-28 > 100 µM | KM12 > 100 µM

COc1ccc(CCNC(=O)[C@H]2CCCC[C@@H]2CCO)cc1OC
inactive: SK-OV-3 > 100 µM | ACHN > 100 µM | NCI-H522 > 100 µM | EKVX > 100 µM | HT-29 > 100 µM | A498 > 100 µM | U-251 > 100 µM | UACC-62 > 100 µM | CCRF-CEM > 100 µM | SR > 100 µM | HOP-92 > 100 µM | UACC-257 > 100 µM | SNB-19 > 100 µM | NCI-H226 > 100 µM | DU-145 > 100 µM | Hs-578T > 100 µM | 786-0 > 100 µM | SK-MEL-28 > 100 µM | KM12 > 100 µM

COc1cc2c(/C=C3/C(=O)N(c4ccccc4)c4ccccc43)c(Cl)[nH]c2cc1C
inactive: SK-OV-3 1.89 µM | ACHN 3.44 µM | NCI-H522 1.44 µM | EKVX 3.6 µM | HT-29 3.09 µM | A498 6.46 µM | U-251 3.24 µM | UACC-62 2.93 µM | CCRF-CEM 1.71 µM | SR 3.03 µM | HOP-92 4.44 µM | UACC-257 3.82 µM | SNB-19 4.55 µM | NCI-H226 24.3 µM | DU-145 2.89 µM | Hs-578T 4.56 µM | 786-0 3.15 µM | SK-MEL-28 3.57 µM | KM12 2.14 µM
